Measured values reported in ChEMBL document CHEMBL3046689, “Volatile aldehydes are promising broad-spectrum postharvest insecticides” (J Agric Food Chem, 2000).
In brackets after ≈: the same amount, converted by molar mass. Activity calls are given as the source filed them. The rule behind the calls is not given here.

What was measured:
Pseudococcus viburni = test: Insecticidal activity against Pseudococcus viburni; assay type: functional, organism-based
Myzus persicae [1] = test: Insecticidal activity against Myzus persicae (green peach aphid) placed under third leaf of naked Iceburg lettuce heads and after compound application for 2 hr through two-tier reduced pressure fumigation at 30 mmHg for 0.5 hr and then 760 mmHg for 1.5 hr at 23 +/- 1 degC measured after 24 hr; assay type: functional; settings: for LC50: Myzus persicae, read-out: LD50 (the source's name)
Pseudococcus affinis = test: Insecticidal activity against Pseudococcus affinis; assay type: functional, organism-based
Brevicoryne brassicae = test: Insecticidal activity against Brevicoryne brassicae (cabbage aphids); assay type: functional, organism-based
Lactuca sativa [2] = test: Phytotoxicity in naked Lactuca sativa (lettuce) assessed as residual aldehyde odor after compound application through two-tier reduced pressure fumigation at 30 mmHg for 0.5 hr and then 760 mmHg for 1.5 hr at 23 +/- 1 degC after 2 hr; assay type: organism-based; settings: in vivo
[3] = tested on: Frankliniella occidentalis; test: Insecticidal activity against Frankliniella occidentalis (western flower thrips); assay type: functional, organism-based
Tetranychus urticae = test: Insecticidal activity against Tetranychus urticae (two-spotted spider mite); assay type: functional, organism-based
Bemisia = test: Insecticidal activity against Bemisia sp.; assay type: functional, organism-based
Lactuca sativa [4] = test: Phytotoxicity in naked Lactuca sativa (lettuce) assessed as change in visual quality after compound application through two-tier reduced pressure fumigation at 30 mmHg for 0.5 hr and then 760 mmHg for 1.5 hr at 23 +/- 1 degC after 2 hr; assay type: organism-based; settings: in vivo
Myzus persicae [5] = test: Insecticidal activity against Myzus persicae (green peach aphid) applied through two-tier reduced pressure fumigation at 30 mmHg for 0.5 hr and then 760 mmHg for 1.5 hr at 23 +/- 1 degC; assay type: functional

SMILES	Activity (Pseudococcus viburni)	LD90 (Myzus persicae [1]) [mg/L]	LC50 (Myzus persicae [1]) [µg/mL]	Activity (Pseudococcus affinis)	Activity (Brevicoryne brassicae)	Activity (Lactuca sativa [2])	Activity [3]	Activity (Tetranychus urticae)	Activity (Bemisia)	Activity (Lactuca sativa [4])	CTP (Myzus persicae [5]) [mg/L.hr]
CCC/C=C/C=O	Active	54.4	24.3 (≈ 248 µM)	Active	inactive	Toxic	Active	inactive	Active	Toxic	–
CCC(C)C=O (stereo not given) [2-METHYLBUTANAL]	Active	184.4	138 (≈ 1610 µM)	Active	inactive	Toxic	Active	inactive	Active	Toxic	–
CCCC(C)C=O (stereo not given) [2-METHYLPENTANAL]	Active	54.2	39.9 (≈ 398 µM)	Active	inactive	Toxic	Active	inactive	Active	Toxic	–
CC/C=C(\C)C=O [2-methyl-(E)-2-pentenal]	Active	85.8	33.5 (≈ 341 µM)	Active	inactive	Toxic	Active	inactive	Active	Toxic	–
CC(C)=CC=O [3-METHYL-(E)-2-BUTENAL]	Active	139.1	73.9 (≈ 879 µM)	Active	inactive	Toxic	Active	inactive	Active	Toxic	–
CC(C)C=O [ISOBUTYRALDEHYDE]	Active	224.1	–	Active	inactive	Toxic	Active	inactive	Active	Toxic	9.2
CCCCC=O [PENTANAL]	Active	115.7	71.4 (≈ 829 µM)	Active	inactive	Toxic	Active	inactive	Active	Toxic	–
